Key:
polymerase enzyme = assay: Real-Time PCR (TaqMan PCR) amplification with caged dATP, with and without UV exposure; assay type: biochemical; conditions: 400 μM dATP-SPh-NPP instead of dATP, 400 cp target DNA
Method: Real-Time PCR (TaqMan® PCR) mixtures with a total volume of 50 μL were prepared by combining three components termed PCR master mixture (20 μL), buffer mixture (20 μL), and dNTP mixture (10 μL). All PCR components were prepared from DEPC water. The PCR master mixture contained tricine buffer (pH 8.2), potassium acetate, glycerol, DMSO, detergent, target DNA (400 cp), polymerase aptamer, probe, primers, SYBR green dye, and polymerase enzyme. The buffer mixture contained manganese acetate (8.3 mM) and imidazole (0, 3.0, or 6.0 mM). The dNTP mixture contained dATP (400 μM), dCTP (400 μM), dGTP (400 μM), and dUTP (800 μM). Another dNTP mixture contained dATP-SPh-NPP (400 μM) instead of dATP. The final concentration of DNA target was 400 cp/reaction.
TaqMan® PCRs of equal composition were positioned on two separate sections of a 96-well plate. Each section contained PCR mixtures with regular dNTPs and PCR mixtures containing dATP-SPh-NPP. Each PCR was prepared as triplicate. One section of the plate was covered with aluminum foil, whereas the other section was exposed to light from an UV-LED lamp (InGaN, Quantum well, λmax=393 nm, 0.18 W/LED) for 8.0 min. at room temperature. […] The analysis of PCR growth curves was performed from fluorescence data collected in the Cy5.5 channel, while analysis of melting curves was based on fluorescence data collected in the FAM channel (465-510 nm).

[1] = Thermostability study at 65° C. (UPLC-MS); assay type: physicochemical; conditions: up to 120 h; for degradation at 65° C. (percentage of starting material and degradation products, peak areas at 260 nm): 300 μM, 40% DMSO, 1.0 M potassium acetate
Method: An aqueous mixture was prepared, containing 300 μM dATP-SPh-NPP, 40% DMSO and 1.0 M potassium acetate. For reference another mixture with 300 μM dATP replacing dATP-SPh-NPP was prepared. 150 μL of each mixture were incubated at 65° C. in a Thermoshaker. After 0, 2, 18, 25, and 120 h samples of each solution (20 μL) were analyzed by UPLC-MS (Ultra performance liquid chromatography—mass spectrometry). The peak areas at 260 nm were used to calculate the percentage of starting material and degradation products.

[2] = Photocleavage by UV-LED irradiation (UPLC-MS); assay type: physicochemical; conditions: UV-LED λmax=393 nm
Method: Two aqueous mixtures of dATP-SPh-NPP and ATP-DMNPE (300 μM each) were prepared in sodium phosphate buffer (100 mM, pH 7.0). Both samples were irradiated simultaneously with light from an UV-LED lamp (InGaN, Quantum well, λmax=393 nm, 0.18 W/LED) in open vials without shaking or stirring. After 0, 1, 2, 4, 8, and 16 min. the irradiation was shortly paused for sample removal (20 μL) and subsequent UPLC-MS analysis. The peak areas at 260 nm were used to calculate the percentage of starting material and photocleavage products. The molecular identities of the starting materials and cleavage products were confirmed by mass spectrometry.

[3] = 5′-hydroxyl protecting group on phosphoramidites; cited from earlier work

Row | Compound | PCR amplification after UV irradiation (polymerase enzyme; UV light for 8.0 min. at room temperature) | PCR amplification, no UV exposure (polymerase enzyme; no UV exposure) | degradation at 65° C. (percentage of starting material and degradation products, peak areas at 260 nm) [1] | thermostability compared to dATP [1] | irradiation time for full cleavage ([2]; 300 μM, 100 mM sodium phosphate buffer pH 7.0) [min] | photocleavage speed compared to ATP-DMNPE ([2]; both irradiated simultaneously, pH 7.0) | dATP released by irradiation ([2]; irradiation for 5 minutes, 300 μM, 100 mM sodium phosphate buffer pH 7.0) [%] | increase in photo-deprotection efficiency compared to conventional NPPOC [3] [fold]
1 | thiophenyl o-nitrophenylpropyl dATP [dATP-SPh-NPP] | leads to DNA amplification | prevents PCR amplification | no degradation products were observed | significantly more thermostable than dATP | 8 | significantly faster | > 90 | –
2 | Nc1ncnc2c1ncn2[C@H]1C[C@H](O)[C@@H](COP(=O)(O)OP(=O)(O)OP(=O)(O)O)O1 [dATP, reference compound] | – | – | quickly degraded to the mono- and diphosphates | – | – | – | – | –
3 | thiophenyl-2-(2-nitrophenyl)-propoxycarbonyl [SPh-NPPOC] | – | – | – | – | – | – | – | 12
